Laboratory results published in patent publication EP4707280A1, “1,4-CINEOLE DERIVATIVE AND INTERMEDIATE THEREOF, HERBICIDE CONTAINING SAID DERIVATIVE AS ACTIVE INGREDIENT, METHOD FOR USING HERBICIDE, AND METHOD FOR PREPARING AGROCHEMICAL COMPOSITION” (HOKKO CHEMICAL INDUSTRY CO., LTD., priority 2023, dated 2024).

Experiments:
Assay type in all cases: in vivo
Amaranthus viridis = assay: Test Example 3: herbicidal effect test by soil application in upland field; settings: Amaranthus viridis, 120 g per 10 ares, sprayed one day after sowing, 14 days after application, read-out: weed inhibition rate
Summary of the method: (§1)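 Pre-emergence test: seeds mixed into top 1 cm of alluvial loam upland soil in pots; emulsifiable concentrate diluted in water sprayed on soil one day after sowing at 100 L/10 a, 120 g a.i./10 a. Weed inhibition rate (%) scored at 14 days, in duplicate.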

Chenopodium album = assay: as above; settings: 120 g per 10 ares, sprayed one day after sowing, 14 days after application, read-out: weed inhibition rate
Summary of the method: as §1

Digitaria ciliaris [1] = assay: as above; settings: Digitaria ciliaris, 120 g per 10 ares, sprayed one day after sowing, 14 days after application, read-out: weed inhibition rate
Summary of the method: as §1

Echinochloa crus-galli [2] = assay: as above; settings: Echinochloa crus-galli, 120 g per 10 ares, sprayed one day after sowing, 14 days after application, read-out: weed inhibition rate
Summary of the method: as §1

Echinochloa crus-galli [3] = assay: Test Example 4: herbicidal effect test by stem and leaf treatment in upland field; settings: Echinochloa crus-galli; 120 g per 10 ares; sprayed seven days after sowing, upland soil; 14 days after application; read-out: weed inhibition rate
Digitaria ciliaris [4] = assay: Test Example 7: herbicidal effect test by soil application in upland field (low dose); settings: Digitaria ciliaris, 7.5 g per 10 ares, sprayed one day after sowing, 14 days after application, read-out: weed inhibition rate
Summary of the method: (§2)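 Upland alluvial loam pots, seeds mixed into top 1 cm of soil; one day after sowing, diluted emulsifiable concentrate sprayed on soil at 100 L/10 a, giving 7.5 g active ingredient/10 a. Duplicate pots; weed inhibition rate (%) scored 14 days after application.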

Echinochloa crus-galli [5] = assay: as above; settings: Echinochloa crus-galli, 7.5 g per 10 ares, sprayed one day after sowing, 14 days after application, read-out: weed inhibition rate
Summary of the method: as §2

[6] = system: Echinochloa crus-galli var. formosensis; assay: Test Example 6: herbicidal effect test by application during growth period of paddy rice (low dose); settings: Echinochloa crus-galli; 7.5 g per 10 ares; applied seven days after sowing, flooded pots; 14 days after application; read-out: weed inhibition rate
Summary of the method: (§3)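 Low-dose water application, 7.5 g a.i. per 10 ares, given by dropper into flooded pots (about 3 cm depth) 7 days after sowing of 30 weed seeds each at 0–1 cm. Evaluation of inhibition (%) took place 14 days later, duplicate per rate.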

Scirpus juncoides = assay: as above; settings: Schoenoplectiella juncoides; 7.5 g per 10 ares; applied seven days after sowing, flooded pots; 14 days after application; read-out: weed inhibition rate
Summary of the method: as §3

[7] = system: Echinochloa crus-galli var. formosensis; assay: Test Example 5: herbicidal effect test by soil application in paddy rice (low dose); settings: Echinochloa crus-galli, soil, 336 h; 7.5 g per 10 ares; applied immediately after sowing, flooded pots; 14 days after application; read-out: weed inhibition rate
Summary of the method: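 Paddy-soil pots, weeds sown 0–1 cm deep and flooded to about 3 cm in a greenhouse. Emulsifiable concentrate diluted in water and dropped in right after sowing at 7.5 g active ingredient per 10 ares. Duplicates; effect scored 14 days after application.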

Monochoria vaginalis = assay: Test Example 6: herbicidal effect test by application during growth period of paddy rice (low dose); settings: Pontederia vaginalis; 7.5 g per 10 ares; applied seven days after sowing, flooded pots; 14 days after application; read-out: weed inhibition rate
Summary of the method: as §3

CC(C)[C@]12C[C@@H](OCc3ccccc3F)[C@](C)(C[C@@H]1O)O2 [1-30, (1R,2S,4S,5R)-5-((2-fluorobenzyl)oxy)-1-isopropyl-4-methyl-7-oxabicyclo[2.2.1]heptan-2-ol]
≥ 80%: inhibition at 1200 g/ha (Amaranthus viridis) | inhibition at 1200 g/ha (Chenopodium album) | inhibition at 1200 g/ha (Digitaria ciliaris [1]) | inhibition at 1200 g/ha (Echinochloa crus-galli [2]) | inhibition at 1200 g/ha (Echinochloa crus-galli [3]) | inhibition at 75 g/ha (Digitaria ciliaris [4]) | inhibition at 75 g/ha (Echinochloa crus-galli [5]) | inhibition at 75 g/ha [6] | inhibition at 75 g/ha (Scirpus juncoides) | inhibition at 75 g/ha [7]

Cc1ccccc1CO[C@@H]1C[C@]2(C(C)C)O[C@@]1(C)CC2C (stereo partly drawn) [1-83, (1S,2R,4R)-4-isopropyl-1,5-dimethyl-2-((2-methylbenzyl)oxy)-7-oxabicyclo[2.2.1]heptane]
≥ 80%: inhibition at 1200 g/ha (Chenopodium album) | inhibition at 1200 g/ha (Digitaria ciliaris [1]) | inhibition at 1200 g/ha (Echinochloa crus-galli [2]) | inhibition at 1200 g/ha (Echinochloa crus-galli [3]) | inhibition at 75 g/ha (Digitaria ciliaris [4]) | inhibition at 75 g/ha (Echinochloa crus-galli [5]) | inhibition at 75 g/ha [6] | inhibition at 75 g/ha (Scirpus juncoides) | inhibition at 75 g/ha (Monochoria vaginalis) | inhibition at 75 g/ha [7]

CC(C)[C@]12C[C@@H](OCc3c(F)cccc3F)[C@](C)(C[C@@H]1O)O2 [1-41, (1R,2S,4S,5R)-5-((2,6-difluorobenzyl)oxy)-1-isopropyl-4-methyl-7-oxabicyclo[2,2,1]heptan-2-ol]
≥ 80%: inhibition at 1200 g/ha (Amaranthus viridis) | inhibition at 1200 g/ha (Chenopodium album) | inhibition at 1200 g/ha (Digitaria ciliaris [1]) | inhibition at 1200 g/ha (Echinochloa crus-galli [2]) | inhibition at 1200 g/ha (Echinochloa crus-galli [3]) | inhibition at 75 g/ha (Digitaria ciliaris [4]) | inhibition at 75 g/ha (Echinochloa crus-galli [5]) | inhibition at 75 g/ha [6] | inhibition at 75 g/ha (Scirpus juncoides) | inhibition at 75 g/ha [7]

CC(C)[C@]12C[C@@H](OCc3ccccc3F)[C@](C)(C[C@@H]1OCc1ccccc1F)O2 [1-603, (1S,2R,4R,5S)-2,5-bis[(2-fluorophenyl)methoxy]-1-methyl-4-isopropyl-7-oxabicyclo[2.2.1]heptane]
≥ 80%: inhibition at 1200 g/ha (Chenopodium album) | inhibition at 1200 g/ha (Digitaria ciliaris [1]) | inhibition at 1200 g/ha (Echinochloa crus-galli [2]) | inhibition at 1200 g/ha (Echinochloa crus-galli [3]) | inhibition at 75 g/ha [6] | inhibition at 75 g/ha (Monochoria vaginalis) | inhibition at 75 g/ha [7]

CC(C)[C@]12C[C@@H](OCc3ccccc3F)[C@](C)(C[C@@H]1F)O2 [1-5, (1R,2S,4S,5R)-2-fluoro-5-((2-fluorobenzyl)oxy)-1-isopropyl-4-methyl-7-oxabicyclo[2.2.1]heptane]
≥ 80%: inhibition at 1200 g/ha (Chenopodium album) | inhibition at 1200 g/ha (Digitaria ciliaris [1]) | inhibition at 1200 g/ha (Echinochloa crus-galli [2]) | inhibition at 1200 g/ha (Echinochloa crus-galli [3]) | inhibition at 75 g/ha (Digitaria ciliaris [4]) | inhibition at 75 g/ha (Echinochloa crus-galli [5]) | inhibition at 75 g/ha [6] | inhibition at 75 g/ha (Scirpus juncoides) | inhibition at 75 g/ha (Monochoria vaginalis) | inhibition at 75 g/ha [7]

CC(C)[C@]12C[C@@H](OCc3c(F)cccc3F)[C@](C)(C[C@@H]1F)O2 [1-7, (1S,2R,4R,5S)-2-((2,6-difluorobenzyl)oxy)-5-fluoro-4-isopropyl-1-methyl-7-oxabicyclo[2.2.1]heptane]
≥ 80%: inhibition at 1200 g/ha (Amaranthus viridis) | inhibition at 1200 g/ha (Chenopodium album) | inhibition at 1200 g/ha (Digitaria ciliaris [1]) | inhibition at 1200 g/ha (Echinochloa crus-galli [2]) | inhibition at 1200 g/ha (Echinochloa crus-galli [3]) | inhibition at 75 g/ha (Digitaria ciliaris [4]) | inhibition at 75 g/ha (Echinochloa crus-galli [5]) | inhibition at 75 g/ha [6] | inhibition at 75 g/ha (Monochoria vaginalis) | inhibition at 75 g/ha [7]

CC(C)[C@]12C[C@@H](OCc3c(F)cccc3F)[C@](C)(CC1C)O2 (stereo partly drawn) [1-111, (1S,2R,4R)-2-((2,6-difluorobenzyl)oxy)-4-isopropyl-1,5-dimethyl-7-oxabicyclo[2.2.1]heptane]
≥ 80%: inhibition at 1200 g/ha (Chenopodium album) | inhibition at 1200 g/ha (Digitaria ciliaris [1]) | inhibition at 1200 g/ha (Echinochloa crus-galli [2]) | inhibition at 1200 g/ha (Echinochloa crus-galli [3]) | inhibition at 75 g/ha (Digitaria ciliaris [4]) | inhibition at 75 g/ha (Echinochloa crus-galli [5]) | inhibition at 75 g/ha [6] | inhibition at 75 g/ha [7]
